Data as given in PubChem BioAssay (NCI).
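In this assay, cells in 96-well plates receive the compound at five concentrations for 48 hours. Endpoints are linearly interpolated between the surrounding concentrations. The concentration for 50% growth inhibition is given as GI50. TGI marks complete inhibition of growth.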 Where a SMILES comes first, the peptide text is derived from it. The star is where a group is joined. Boc = CC(C)(C)OC(=O)*; OBn = c1ccc(CO*)cc1

Legend:
Experiment in all cases: NCI anticancer screen, dose series, 48 h
CCRF-CEM leukemia = test system: CCRF-CEM leukemia
SNB-75 CNS = test system: SNB-75 CNS
786-0 renal = test system: 786-0 renal
LOX IMVI melanoma = test system: LOX IMVI melanoma
NCI-H522 lung = test system: NCI-H522 lung
SK-OV-3 ovarian = test system: SK-OV-3 ovarian
HL-60(TB) leukemia = test system: HL-60(TB) leukemia
OVCAR-4 ovarian = test system: OVCAR-4 ovarian
OVCAR-5 ovarian = test system: OVCAR-5 ovarian

Compound | TGI (CCRF-CEM leukemia) [µM] | TGI (SNB-75 CNS) [µM] | TGI (786-0 renal) [µM] | TGI (LOX IMVI melanoma) [µM] | TGI (NCI-H522 lung) [µM] | TGI (SK-OV-3 ovarian) [µM] | TGI (HL-60(TB) leukemia) [µM] | TGI (OVCAR-4 ovarian) [µM] | TGI (OVCAR-5 ovarian) [µM] | GI50 (OVCAR-4 ovarian) [µM] | GI50 (SNB-75 CNS) [µM] | GI50 (LOX IMVI melanoma) [µM] | GI50 (NCI-H522 lung) [µM] | GI50 (SK-OV-3 ovarian) [µM] | GI50 (HL-60(TB) leukemia) [µM]
COc1cccc(C=C2N=C(C)N(n3c(-c4ccccc4)nc4ccccc4c3=O)C2=O)c1 | > 100 | > 100 | > 100 | > 100 | > 100 | > 100 | > 100 |  |  |  |  |  |  |  | 
CN(C)Cc1cc(C(=O)/C=C/c2ccc(F)cc2)cc(CN(C)C)c1O | 78 | 87.2 | > 100 | 20.7 | 31.7 |  | 35.4 | > 100 | > 100 |  |  |  |  |  | 
O=C(c1ccccc1)c1nn(-c2ccccc2)c2nc3nc(-c4ccccc4)cc(=O)n3nc12 |  | > 100 |  | 78.7 | 58.5 | > 100 | 42.4 | 68.4 |  | 22.9 | 36.1 | 25.8 | 20.6 | 62.2 | 15.2
Cc1c(-c2ccc(O)c(O)c2)oc(=O)c2c(O)cccc12 | > 100 | 76 | 23.4 |  | 15.5 | 40.9 | > 100 | 40.4 | 33.5 |  |  |  |  |  | 
CC(C)CC(NC(=O)C(Cc1ccccc1)NC(=O)C(Cc1ccccc1)NC(=O)OC(C)(C)C)C(=O)OCc1ccccc1 (stereo not drawn) (Boc-Phe-Phe-Leu-OBn; configuration not given here) | > 100 | > 100 | > 100 | > 100 | > 100 | > 100 | > 100 |  | > 100 |  |  |  |  |  | 
COc1cc(C(=O)OCCn2[nH]c(-c3ccc(Cl)cc3)nc2=S)cc(OC)c1OC | > 100 |  | > 100 | > 100 | > 100 | > 100 | > 100 | > 100 | > 100 |  |  |  |  |  | 
NC(=O)C1N=NSC1NC(=O)c1ccc([N+](=O)[O-])cc1 (centres undefined) | > 100 | > 100 | > 100 |  |  | > 100 |  | > 100 | > 100 |  |  |  |  |  | 
COc1ccc(/C=C2\CN(C)CC3C2=NN(c2ccccc2)C3c2ccc(OC)cc2)cc1 (centres undefined) | > 100 |  | > 100 | > 100 | > 100 | 55.1 |  | > 100 | > 100 |  |  |  |  |  | 
O=C1C=C2CC[C@H]3[C@@H]4CC[C@H](Oc5c6ccccc6nc6ccccc56)[C@H]4CC[C@@H]3[C@H]2CC1 | 60.1 | 91.8 | > 100 | > 100 |  | > 100 | 47.4 | > 100 | > 100 |  |  |  |  |  | 
C=CCN1C[C@@H](C)N([C@@H](c2ccc(C(=O)N(CC)CC)cc2)c2cccc(OC)c2)C[C@@H]1C | > 100 |  | > 100 | > 100 | > 100 | > 100 |  | > 100 | > 100 |  |  |  |  |  | 
O=C(CCc1ccc(O)cc1)NCCCNC(=O)CCc1ccc(O)cc1 | > 100 | > 100 | > 100 | > 100 | > 100 | > 100 |  | > 100 | > 100 |  |  |  |  |  | 
CS/C=C\C(=O)O[C@H]1C[C@@H]2[C@@H](O)c3occ(C)c3C[C@]2(C)[C@@H](C)C1 | > 100 |  | 30.2 | 32.8 | 71.7 | > 100 | 43.8 | 51.6 | > 100 |  |  |  |  |  | 
Nc1[nH]c(=S)c2c(N)n[nH]c2c1C(=O)Nc1ccc(Cl)cc1 |  | > 100 | > 100 | 40.1 | > 100 | > 100 | > 100 | > 100 | > 100 |  |  |  |  |  | 
Nc1c2c(nc3ccccc13)CCCc1ccccc1-2 |  | 26.6 | 24.9 | 22.1 | 37.2 | > 100 | 21.4 | 84.8 | 34.6 |  |  |  |  |  | 
CC[C@H]1C=CCC[C@@]2(C[C@@H]3CC[C@@H]4[C@H](C(=O)OCCCCCCCCCCCCCCCC(=O)N(CCCNC(C)=O)C[C@H](CCNC(C)=O)OC(C)=O)[C@]5(CCC[C@@H](C)O5)NC(=[N+]34)N2)O1 | 0.0469 |  | 0.426 | 0.0709 | 0.287 | 2.73 | 1.34 | 1.84 | 1.8 |  |  |  |  |  | 
CC(=O)OCCOCCN1CCN(c2c(O)c3c(c(O)c2Cl)C(=O)C=CC3=O)CC1 |  | 3.71 | 0.913 | 1.66 | 0.583 | 6.06 | 0.238 | 1.32 | 2.97 |  |  |  |  |  | 
CC(C)(O)CCc1ccc(O)c2c(=O)c3c(O)c4c(cc3oc12)O[C@H]1OC=C[C@@]41O | > 100 | 10.1 | > 64 | > 100 | 18.3 | 13.2 |  | 0.222 | 8.74 |  |  |  |  |  | 
Cc1nc2ccccc2n1Cc1nnc2n1N=C(c1ccccc1)CS2 | > 100 | 59 | > 100 |  | 71.2 | > 100 | 95.3 | > 100 | > 100 |  |  |  |  |  | 
NC(=O)SCC(=O)Nc1ccc2ncccc2c1 | > 100 |  | 67.6 | > 100 | 69.3 | > 100 | > 100 | > 100 | > 100 |  |  |  |  |  | 
CCn1c(=O)c2c3cc(OC(C)=O)ccc3oc2c2ccc(OC(C)=O)cc21 | > 100 | 45 | > 100 |  | > 100 | > 100 |  | > 100 |  |  |  |  |  |  | 
COc1ccc(-c2cc(-c3ccccc3)nc3c2CC(=O)Nc2ccccc2-3)cc1OC | > 100 | 2.67 | > 100 | > 100 | > 100 | > 92.6 |  | > 100 | > 100 |  |  |  |  |  | 
Cc1ccc(S(=O)(=O)N2CCCSCCN(S(=O)(=O)c3ccc(C)cc3)CCCSCC2)cc1 |  | > 100 | > 100 |  |  | > 100 | > 100 | > 100 | > 100 |  |  |  |  |  | 
C/C(=C1\C(=O)C(c2ccccc2)N(c2ccccc2)C1=O)c1ccc(Cl)cc1 (centres undefined) |  |  | 38.6 | 28.5 | 38.7 | 30.8 | 69.1 | 42.8 |  |  |  |  |  |  | 
NC(C(=O)OC(=O)c1ccccc1)C(=O)OC(=O)c1ccccc1 | > 100 | > 100 | > 100 | > 100 | > 100 |  |  | > 100 | > 100 |  |  |  |  |  | 
